Peptide text beside a SMILES is read from it.
Experiments:
Type in all cases: cell-based
[1] = system: Xanthomonas axonopodis pv. vesicatoria 2133-2; conditions: Table S1, MIC range
Experimental: (§1) Erwinia amylovora PMV6076 (Institut National de la Recherche Agronomique, Angers, France), Pseudomonas syringae pv. syringae EPS94 (Institut de Tecnologia Agroalimentària, Universitat de Girona, Spain), and Xanthomonas axonopodis pv. vesicatoria 2133-2 (Instituto Valenciano de Investigaciones Agrarias, Valencia, Spain) were used as bacterial strains. They were stored and cultivated as previously described.
(§2) The minimum inhibitory concentration (MIC) was analyzed as previously described at 0.8, 1.6, 3.1, 6.2, 12.5, 25 and 50 μM [20].

[2] = system: Erwinia amylovora PMV6076; experiment: Antibacterial activity (MIC), in vitro growth inhibition; conditions: Table S1, MIC range
Experimental: as §1, §2

[3] = system: Pseudomonas syringae pv. syringae EPS94; experiment: as above; conditions: Table S1, MIC range
Experimental: as §1, §2

[4] = system: erythrocyte suspensions of human blood; experiment: Hemolytic activity, hemoglobin release; conditions: human blood erythrocytes 5% v/v, absorbance 540 nm, percentage compared to melittin, three replicates; for Hemolysis (%) at 50 µM: peptide 50 μM (table prints 50 µM); for Hemolysis (%) at 125 µM: peptide 125 μM (table prints 125 µM)
Experimental: The hemolytic activity of the compounds was evaluated at 50 and 125 μM by determining hemoglobin release from erythrocyte suspensions of human blood (5% v/v) (Oxoid) using absorbance at 540 nm, as previously described. Three replicates for each peptide concentration were used.

| Structure (SMILES) | MIC Xav [1] | MIC Ea [2] | MIC Pss [3] | Hemolysis (%) at 50 µM [4] | Hemolysis (%) at 125 µM [4] |
| --- | --- | --- | --- | --- | --- |
| CC(C)C[C@@H]1NC(=O)[C@H](CCCCN)NC(=O)[C@H](Cc2c[nH]c3ccccc23)NC(=O)[C@H](CCCCN)NC(=O)[C@H](CCCCN)NC(=O)[C@H](CC(C)C)NC(=O)[C@H](CC(C)C)NC(=O)[C@H](CCCCN)NC(=O)[C@H](CCC(N)=O)NC(=O)[C@H](CCCCN)NC1=O [BPC122W, c(KLLKKWKLKQ)] (cyclo(KKWKLKQKLL)) | 6.2 to 12.5 µM | 12.5 to 25 µM | 3.1 to 6.2 µM | 2% | 6% |
| CC(C)C[C@@H]1NC(=O)[C@H](CCCCN)NC(=O)[C@H](CCCCN)NC(=O)[C@H](Cc2c[nH]c3ccccc23)NC(=O)[C@H](CCCCN)NC(=O)[C@H](CC(C)C)NC(=O)[C@H](CC(C)C)NC(=O)[C@H](CCCCN)NC(=O)[C@H](CCCCN)NC(=O)[C@H](CCC(N)=O)NC1=O [BPC088W, c(KKLLKWKKLQ)] (cyclo(KKLLKWKKLQ)) | 1.6 to 3.1 µM | 12.5 to 25 µM | 6.2 to 12.5 µM | 14% | 19% |
| CC(C)C[C@@H]1NC(=O)[C@H](CCCCN)NC(=O)[C@H](CC(C)C)NC(=O)[C@H](Cc2c[nH]c3ccccc23)NC(=O)[C@H](CC(C)C)NC(=O)[C@H](CCCCN)NC(=O)[C@H](CCCCN)NC(=O)[C@H](CCCCN)NC(=O)[C@H](CCCCN)NC(=O)[C@H](CCC(N)=O)NC1=O [BPC070W, c(KKKKLWLKLQ)] (cyclo(KKKKLWLKLQ)) | 1.6 to 3.1 µM | 12.5 to 25 µM | 6.2 to 12.5 µM | 6% | 9% |
| CC(C)C[C@@H]1NC(=O)[C@H](CCC(N)=O)NC(=O)[C@H](CCCCN)NC(=O)[C@H](CC(C)C)NC(=O)[C@H](CCCCN)NC(=O)[C@H](Cc2c[nH]c3ccccc23)NC(=O)[C@H](CC(C)C)NC(=O)[C@H](CCCCN)NC(=O)[C@H](CCCCN)NC(=O)[C@H](CCCCN)NC1=O [BPC116W, c(LKKKLWKLKQ)] (cyclo(KKKLWKLKQL)) | 3.1 to 6.2 µM | 12.5 to 25 µM | 3.1 to 6.2 µM | 9% | 14% |
| CC(C)C[C@@H]1NC(=O)[C@H](CCCCN)NC(=O)[C@H](CCC(N)=O)NC(=O)[C@H](CCCCN)NC(=O)[C@H](CCCCN)NC(=O)[C@H](CC(C)C)NC(=O)[C@H](Cc2c[nH]c3ccccc23)NC(=O)[C@H](CCCCN)NC(=O)[C@H](CCCCN)NC(=O)[C@H](CC(C)C)NC1=O [BPC142W, c(KLLKKWLKKQ)] (cyclo(KKQKLLKKWL)) | 3.1 to 6.2 µM | 12.5 to 25 µM | 6.2 to 12.5 µM | 16% | 18% |
| CC(C)C[C@@H]1NC(=O)[C@H](CCCCN)NC(=O)[C@H](CC(C)C)NC(=O)[C@H](Cc2c[nH]c3ccccc23)NC(=O)[C@H](CCCCN)NC(=O)[C@H](CC(C)C)NC(=O)[C@H](CCCCN)NC(=O)[C@H](CCCCN)NC(=O)[C@H](CCCCN)NC(=O)[C@H](CCC(N)=O)NC1=O [BPC072W, c(KKKLKWLKLQ)] (cyclo(KKKLKWLKLQ)) | 1.6 to 3.1 µM | 12.5 to 25 µM | 3.1 to 6.2 µM | 7% | 9% and below 20% |
| CC(C)C[C@@H]1NC(=O)[C@H](CCC(N)=O)NC(=O)[C@H](CCCCN)NC(=O)[C@H](CC(C)C)NC(=O)[C@H](CCCCN)NC(=O)[C@H](Cc2c[nH]c3ccccc23)NC(=O)[C@H](CCCCN)NC(=O)[C@H](CC(C)C)NC(=O)[C@H](CCCCN)NC(=O)[C@H](CCCCN)NC1=O [BPC120W, c(LKKLKWKLKQ)] (cyclo(KKLKWKLKQL)) | 1.6 to 3.1 µM | 12.5 to 25 µM | 3.1 to 6.2 µM | 6% | 9% and below 20% |
| CC(C)C[C@@H]1NC(=O)[C@H](CCCCN)NC(=O)[C@H](Cc2c[nH]c3ccccc23)NC(=O)[C@H](CCCCN)NC(=O)[C@H](CC(C)C)NC(=O)[C@H](CC(C)C)NC(=O)[C@H](CCCCN)NC(=O)[C@H](CCCCN)NC(=O)[C@H](CCC(N)=O)NC(=O)[C@H](CCCCN)NC1=O [BPC118W, c(KKLLKWKLKQ)] (cyclo(KKLLKWKLKQ)) | 12.5 to 25 µM | 12.5 to 25 µM | 6.2 to 12.5 µM | 4% | 4% |
| CC(C)C[C@@H]1NC(=O)[C@H](CCCCN)NC(=O)[C@H](CCCCN)NC(=O)[C@H](CCC(N)=O)NC(=O)[C@H](CC(C)C)NC(=O)[C@H](CC(C)C)NC(=O)[C@H](CCCCN)NC(=O)[C@H](Cc2c[nH]c3ccccc23)NC(=O)[C@H](CCCCN)NC(=O)[C@H](CCCCN)NC1=O [BPC064W, c(KKLKKWKLLQ)] (cyclo(KKLKKWKLLQ)) | 6.2 to 12.5 µM | 6.2 to 12.5 µM | 3.1 to 6.2 µM | 17% | 25% |
| CC(C)C[C@@H]1NC(=O)[C@H](CCCCN)NC(=O)[C@H](CCCCN)NC(=O)[C@H](CCC(N)=O)NC(=O)[C@H](CCCCN)NC(=O)[C@H](CCCCN)NC(=O)[C@H](CCCCN)NC(=O)[C@H](Cc2c[nH]c3ccccc23)NC(=O)[C@H](CC(C)C)NC(=O)[C@H](CC(C)C)NC1=O [BPC148W, c(KKLLLWKKKQ)] (cyclo(KKKQKKLLLW)) | 12.5 to 25 µM | – | 12.5 to 25 µM | 1% | 2% |
| CC(C)C[C@@H]1NC(=O)[C@H](CCCCN)NC(=O)[C@H](Cc2c[nH]c3ccccc23)NC(=O)[C@H](CCCCN)NC(=O)[C@H](CCCCN)NC(=O)[C@H](CC(C)C)NC(=O)[C@H](CCCCN)NC(=O)[C@H](CC(C)C)NC(=O)[C@H](CCC(N)=O)NC(=O)[C@H](CCCCN)NC1=O [BPC124W, c(LKLKKWKLKQ)] (cyclo(KKWKLKQLKL)) | 3.1 to 6.2 µM | – | 6.2 to 12.5 µM | 2% | 2% |
| CC(C)C[C@@H]1NC(=O)[C@H](CCCCN)NC(=O)[C@H](CC(C)C)NC(=O)[C@H](CC(C)C)NC(=O)[C@H](CCC(N)=O)NC(=O)[C@H](CCCCN)NC(=O)[C@H](CCCCN)NC(=O)[C@H](CCCCN)NC(=O)[C@H](Cc2c[nH]c3ccccc23)NC(=O)[C@H](CCCCN)NC1=O [BPC164W, c(LLKLKWKKKQ)] (cyclo(KKKQLLKLKW)) | 6.2 to 12.5 µM | – | 6.2 to 12.5 µM | 6% | 6% |
